Measured values from US9272987B2, “Diazeniumdiolate cyclohexyl derivatives” (Merck Sharp & Dohme Corp., priority 2011, dated 2016).

Test system: Male beagle dogs
Assay: canine telemetry protocol, blood pressure reduction efficacy
Type: in vivo
Conditions: change from baseline, 3 mg/kg oral gavage; for ΔPP (mmHg) 1-6 h / ΔPP (mmHg) 6-12 h / ΔPP (mmHg) 12-18 h: pulse pressure; for ΔSBP (mmHg) 1-6 h / ΔSBP (mmHg) 6-12 h / ΔSBP (mmHg) 12-18 h: systolic blood pressure
Method: Compounds of the invention were evaluated for blood pressure reduction efficacy using the following canine telemetry protocol described below.
Male beagle dogs (approximately 1-3 years old) with a body weight of between 10 and 16 kg were surgically implanted with DSI radiotelemetry devices (model: TL11M2-D70-PCT). Briefly, under an inhalant anesthesia, isoflurane/oxygen mixture (1-3.5%/to effect), the body of the telemetry device was positioned and secured intra-abdominally. Subsequently, the arterial catheter of the telemetry device was passed subcutaneously to the inguinal area and introduced into the femoral artery and advanced to the level of the descending aorta. The catheter was secured with 2-0 silk ligatures. The muscle and underlying fascia was closed over the catheter using absorbable suture and the skin was closed using non-absorbable suture. The animals were allowed a minimum recovery period of 2 weeks between surgery and the evaluation of test compounds.
Compound evaluation consisted of a 3 day paradigm at a 3 mg/kg dose. On the first day, no compounds were administered during a 24 hour period of baseline data collection. Blood pressure and heart rate data were collected continuously for one minute periods at 10 minute intervals. On the days of compound administration half the animals received test article with the other half receiving the vehicle used for compound formulation. All test materials were administered by oral gavage in a volume of 1 mL/kg. Data are expressed either as raw values (mm Hg or beats per minute) or as the change from baseline (average value for about 12 hours in low activity period prior to dosing). Change is SBP (systolic blood pressure) and PP (pulse pressure) over time is shown below: […]

Row | Compound | ΔPP (mmHg) 1-6 h | ΔPP (mmHg) 6-12 h | ΔPP (mmHg) 12-18 h | ΔSBP (mmHg) 1-6 h | ΔSBP (mmHg) 6-12 h | ΔSBP (mmHg) 12-18 h
1 | CN(/[N+]([O-])=N/OC1CCCCC1)C(C)(C)C [Example 2] | −9 mmHg | −11 mmHg | −12 mmHg | −11 mmHg | −9 mmHg | −9 mmHg
2 | CN(/[N+]([O-])=N/OC1CCC(F)(F)CC1)C(C)(C)C [Example 9, O^2-(4,4-difluorocyclohexyl) 1-(N-tert-butyl-N-methylamino)diazen-1-ium-1,2-diolate] | −7 mmHg | −8 mmHg | −8 mmHg | −8 mmHg | −12 mmHg | −13 mmHg
3 | O^2-(trans-4-hydroxy-4-phenylcyclohexyl) 1-(N-tert-butyl-N-methylamino)diazen-1-ium-1,2-diolate [Example 19] | −7 mmHg | −9 mmHg | −9 mmHg | −11 mmHg | −12 mmHg | −15 mmHg
4 | O^2-(trans-4-phenylcyclohexyl) 1-(N-tert-butyl-N-methylamino)diazen-1-ium-1,2-diolate [Example 33] | −7 mmHg | −12 mmHg | −11 mmHg | −9 mmHg | −15 mmHg | −9 mmHg
